From patent US20250228862A1, “METHODS OF USING ATR INHIBITORS” (Repare Therapeutics Inc., priority 2022, published 2025) come the findings set out here.

In test [1] the test system is ARID1A wild-type (WT) and knockout (ARID1A−/−) MCF1A cells. Description: IncuCyte growth (confluency), isogenic ARID1A WT and -/- MCF10A. The format is cell-based, human. The note with it: MCF10A ARID1A−/− vs WT. The procedure: FIG. 11B: Dose-response curves of isogenic ARID1A wild-type (WT) and knockout (ARID1A−/−) MCF1A cells treated with AZD-6738. Cell growth (confluency) was measured by IncuCyte automated microscopy. Data (circles) were fitted to a four-parameter dose-response model (solid lines).
(§1) In addition to the genes disclosed herein, we investigated ATRi sensitivity to the loss of ARID1A, which was previously described in Williamson et al., Nat. Comms., 7:13837, 2016, as a bona fide biomarker of ATRi sensitivity. Three isogenic ARID1A wild-type (WT) and ARID1A-deficient (ARID1A−/−) human cell line pairs were employed: HCT116, MCF10A and BEAS2B. […] To strengthen this observation, we assembled a panel of tissue-matched cancer cell lines that were either ARID1A WT or carried deleterious ARID1A alterations (LOF) and measured their sensitivity to AZD-6738. […] In aggregate, we believe that the genes named in this Application present a list of bona fide determinants of ATRi sensitivity as opposed to certain 5 biomarkers described in the scientific literature.

The test system of test [2] is ARID1A wild-type (WT) and knockout (ARID1A−/−) HCT116 cells. Description: IncuCyte growth (confluency), isogenic ARID1A WT and -/- HCT116. In kind it is cell-based, human. Particulars: HCT116 ARID1A−/− vs WT. The procedure:
FIG. 11A: Dose-response curves of isogenic ARID1A wild-type (WT) and knockout (ARID1A−/−) HCT116 cells treated with AZD-6738. Cell growth (confluency) was measured by IncuCyte automated microscopy. Data (circles) were fitted to a four-parameter dose-response model (solid lines).
as §1

Test [3] relates to cancer cell lines either wild-type for ARID1A (WT) or carrying deleterious ARID1A alterations (LOF). Description: IncuCyte growth assays in ARID1A WT and LOF cancer cell line panel. In kind it is cell-based. The note with it: tissue-matched cancer cell line panel.
From the text: FIG. 12: EC50 values for the ATRI AZD-6738 from IncuCyte growth assays in a panel of cancer cell lines either wild-type for ARID1A (WT) or carrying deleterious ARID1A alterations (LOF). Data (circles) from two independent experiments with mean (bars)±SD (error bars).
as §1

The test system of test [4] is ARID1A wild-type (WT) and knockout (ARID1A−/−) BEAS2B cells. Description: IncuCyte growth (confluency), isogenic ARID1A WT and -/- BEAS2B. The format is cell-based, human. Particulars: BEAS2B ARID1A−/− vs WT. The procedure: FIG. 11C: Dose-response curves of isogenic ARID1A wild-type (WT) and knockout (ARID1A−/−) BEAS2B cells treated with AZD-6738. Cell growth (confluency) was measured by IncuCyte automated microscopy. Data (circles) were fitted to a four-parameter dose-response model (solid lines).
as §1

Molecules are shown by their SMILES.

Consider `C[C@@H]1COCCN1c1cc(C2([S@](C)(=N)=O)CC2)nc(-c2cc[nH]c3nccc2-3)n1` [AZD-6738], for which the “Sensitivity upon ARID1A deficiency” value in test [1], in test [2] and in test [4] was “did not lead to sensitivity” throughout. Besides, the “Sensitivity (EC50) of ARID1A LOF vs ARID1A WT cell lines” value in test [3] is “no significant trend towards higher ATRi sensitivity in ARID1A LOF cell lines”.
